Laboratory results: ChEMBL document CHEMBL5034019, “Discovery of the Next-Generation Pan-TRK Kinase Inhibitors for the Treatment of Cancer” (J Med Chem, 2021)
≈ marks a conversion by molar mass, not a printed value. Blank lines part the entries; values can stand above or below the compound they belong to. Calls of active or inactive are those of the source. No cut-off for these calls is given here.

Columns and labels:
[1] = Kinetic solubility of the compound; assay type: physicochemical; conditions: read-out: Kinetic_solubility
[2] = Toxicity in mouse xenografted with mouse BaF3 cells transfected with ETV6-NTRK3-G623R mutant assessed as weight loss at 20 mg/kg, po administered once daily for 21 days and measured twice weekly; conditions: in vivo, 504 h
[3] = molecular target: T1, High affinity nerve growth factor receptor (Homo sapiens, UniProt P04629)
Target sequence in this assay (P04629 whole entry): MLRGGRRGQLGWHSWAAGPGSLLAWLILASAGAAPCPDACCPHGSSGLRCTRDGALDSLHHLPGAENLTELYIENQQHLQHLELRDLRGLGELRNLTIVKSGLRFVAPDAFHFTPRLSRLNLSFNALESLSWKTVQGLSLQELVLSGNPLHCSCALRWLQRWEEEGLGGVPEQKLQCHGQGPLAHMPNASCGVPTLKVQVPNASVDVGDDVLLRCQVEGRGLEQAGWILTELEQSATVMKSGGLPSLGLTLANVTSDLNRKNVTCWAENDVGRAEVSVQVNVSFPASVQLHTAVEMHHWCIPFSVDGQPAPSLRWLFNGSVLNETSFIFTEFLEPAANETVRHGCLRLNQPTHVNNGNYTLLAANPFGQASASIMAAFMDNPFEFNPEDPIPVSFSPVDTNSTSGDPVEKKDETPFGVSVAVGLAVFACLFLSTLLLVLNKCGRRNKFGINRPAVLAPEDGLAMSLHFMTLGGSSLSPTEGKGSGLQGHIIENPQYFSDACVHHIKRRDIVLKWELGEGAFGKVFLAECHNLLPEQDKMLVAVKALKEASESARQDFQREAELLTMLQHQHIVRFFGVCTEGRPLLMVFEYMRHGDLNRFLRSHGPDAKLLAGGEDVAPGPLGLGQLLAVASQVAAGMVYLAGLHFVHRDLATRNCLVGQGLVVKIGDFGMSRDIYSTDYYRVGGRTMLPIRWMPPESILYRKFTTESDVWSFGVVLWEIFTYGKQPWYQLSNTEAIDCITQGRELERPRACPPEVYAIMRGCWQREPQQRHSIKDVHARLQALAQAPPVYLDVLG
Description: Inhibition of TrKA (unknown origin) incubated for 120 mins in presence of 33P-ATP

[4] = system: Hepatocyte growth factor receptor (Homo sapiens), P08581 [M1268T]; test: Inhibition of recombinant human Met M1268T mutant (974 to end residues) assessed as residual activity at 0.5 uM using KKKGQEEEYVFIE as substrate incubated for 40 mins in presence of [gamma-33P]-ATP by scintillation counting method relative to control
in vitro = conditions: human, Caco-2
Description: Efflux ratio of apparent permeability from basolateral to apical over apical to basolateral side in human Caco2 cells incubated for 2 hrs by LC-MS/MS analysis

[5] = system: Mast/stem cell growth factor receptor Kit (Homo sapiens), P10721 [V560G]; test: Inhibition of recombinant human C-Kit V560G mutant (544 to end residues) assessed as residual activity at 0.5 uM poly(Glu, Tyr) 4:1 as substrate incubated 40 mins in presence of [gamma-33ATP] by scintillation counting based radiometry assay relative to control
BaF3 [6] = test: Antitumor activity against mouse BaF3 cells transfected with ETV6-NTRK3 xenografted in mouse assessed as tumor growth inhibition at 5 to 20 mg/kg, po administered once daily for 21 days and measured twice weekly; conditions: dose 5-20 mg/kg, time 21.0 day
[7] = Volume of distribution in female Sprague-Dawley rat at 2 mg/kg, iv measured up to 24 hrs by LC-MS/MS analysis; assay type: ADME, organism-based; conditions: in vivo
[8] = molecular target: Fibroblast growth factor receptor 1 (Homo sapiens) (UniProt P11362); test: Inhibition of recombinant human FGFR1 (456 to 765 residues) assessed as residual activity at 0.5 uM using KKKSPGEYVNIEF as substrate at 40 mins in presence of [gamma-33ATP] by scintillation counting based radiometry assay relative to control
Sequence of Fibroblast growth factor receptor 1 (Homo sapiens) (P11362 22-822 limits assumed): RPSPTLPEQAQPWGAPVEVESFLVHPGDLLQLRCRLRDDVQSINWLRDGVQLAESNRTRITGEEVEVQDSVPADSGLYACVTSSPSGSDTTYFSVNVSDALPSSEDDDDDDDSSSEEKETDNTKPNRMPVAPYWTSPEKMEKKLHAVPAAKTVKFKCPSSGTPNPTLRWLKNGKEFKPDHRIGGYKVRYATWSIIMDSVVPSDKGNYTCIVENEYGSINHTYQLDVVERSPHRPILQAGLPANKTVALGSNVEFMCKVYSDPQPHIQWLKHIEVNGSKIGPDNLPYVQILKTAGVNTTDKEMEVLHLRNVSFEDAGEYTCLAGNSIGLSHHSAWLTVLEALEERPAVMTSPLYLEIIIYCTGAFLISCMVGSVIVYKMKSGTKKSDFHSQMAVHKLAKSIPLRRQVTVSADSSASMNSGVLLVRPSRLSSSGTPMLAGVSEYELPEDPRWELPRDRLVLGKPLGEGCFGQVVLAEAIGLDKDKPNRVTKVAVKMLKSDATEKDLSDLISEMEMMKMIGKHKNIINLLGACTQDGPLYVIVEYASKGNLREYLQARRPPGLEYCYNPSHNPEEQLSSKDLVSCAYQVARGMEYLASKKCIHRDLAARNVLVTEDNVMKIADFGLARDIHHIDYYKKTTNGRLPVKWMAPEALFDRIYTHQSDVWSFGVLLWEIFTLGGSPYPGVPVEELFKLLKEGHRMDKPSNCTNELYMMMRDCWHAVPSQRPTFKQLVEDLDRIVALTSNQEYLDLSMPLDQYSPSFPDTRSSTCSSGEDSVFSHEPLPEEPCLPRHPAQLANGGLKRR

[9] = molecular target: High affinity nerve growth factor receptor (Homo sapiens, UniProt P04629, G595R)
Sequence of High affinity nerve growth factor receptor (Homo sapiens, UniProt P04629, G595R) (P04629 33-796 G595R limits assumed): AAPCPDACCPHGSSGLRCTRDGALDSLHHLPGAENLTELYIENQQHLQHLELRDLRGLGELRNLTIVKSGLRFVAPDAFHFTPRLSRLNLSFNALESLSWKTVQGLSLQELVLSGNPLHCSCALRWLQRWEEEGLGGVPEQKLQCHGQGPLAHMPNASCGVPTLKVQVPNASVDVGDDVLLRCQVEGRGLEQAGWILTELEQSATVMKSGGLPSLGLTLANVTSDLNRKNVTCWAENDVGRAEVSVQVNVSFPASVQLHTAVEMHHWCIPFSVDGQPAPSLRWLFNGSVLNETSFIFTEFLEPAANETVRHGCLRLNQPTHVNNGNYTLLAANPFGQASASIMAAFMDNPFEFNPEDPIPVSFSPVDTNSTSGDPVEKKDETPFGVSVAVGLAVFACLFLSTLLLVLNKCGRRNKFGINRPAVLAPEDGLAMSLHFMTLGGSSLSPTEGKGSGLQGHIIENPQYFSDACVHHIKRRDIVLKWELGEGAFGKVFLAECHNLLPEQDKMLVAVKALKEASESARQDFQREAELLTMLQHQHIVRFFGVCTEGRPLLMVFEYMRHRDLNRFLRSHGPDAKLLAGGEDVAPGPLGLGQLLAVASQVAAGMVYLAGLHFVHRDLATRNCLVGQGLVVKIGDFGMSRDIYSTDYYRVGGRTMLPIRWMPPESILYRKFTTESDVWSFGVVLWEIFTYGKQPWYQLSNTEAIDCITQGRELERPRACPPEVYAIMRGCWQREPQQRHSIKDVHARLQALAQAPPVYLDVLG

[10] = Half life in male Sprague-Dawley rat at 2 mg/kg, iv measured up to 24 hrs by LC-MS/MS analysis; assay type: ADME, organism-based; conditions: in vivo
BaF3 [11] = test: Antitumor activity against mouse BaF3 cells transfected with LMNA-NTRK1-G595R mutant xenografted in mouse assessed as tumor growth inhibition at 5 to 20 mg/kg, po administered once daily for 21 days and measured twice weekly; conditions: dose 5-20 mg/kg, time 21.0 day
[12] = molecular target: Receptor-interacting serine/threonine-protein kinase 1 (Homo sapiens) (UniProt Q13546); test: Inhibition of recombinant human RIPK1 (8 to 322 residues) assessed as residual activity at 0.5 uM using myelin basic protein as substrate incubated for 40 mins in presence of [gamma33P]ATP by scintillation counting based radiometry assay relative to control
Sequence of Receptor-interacting serine/threonine-protein kinase 1 (Homo sapiens) (Q13546 whole entry, the tested form may be a part): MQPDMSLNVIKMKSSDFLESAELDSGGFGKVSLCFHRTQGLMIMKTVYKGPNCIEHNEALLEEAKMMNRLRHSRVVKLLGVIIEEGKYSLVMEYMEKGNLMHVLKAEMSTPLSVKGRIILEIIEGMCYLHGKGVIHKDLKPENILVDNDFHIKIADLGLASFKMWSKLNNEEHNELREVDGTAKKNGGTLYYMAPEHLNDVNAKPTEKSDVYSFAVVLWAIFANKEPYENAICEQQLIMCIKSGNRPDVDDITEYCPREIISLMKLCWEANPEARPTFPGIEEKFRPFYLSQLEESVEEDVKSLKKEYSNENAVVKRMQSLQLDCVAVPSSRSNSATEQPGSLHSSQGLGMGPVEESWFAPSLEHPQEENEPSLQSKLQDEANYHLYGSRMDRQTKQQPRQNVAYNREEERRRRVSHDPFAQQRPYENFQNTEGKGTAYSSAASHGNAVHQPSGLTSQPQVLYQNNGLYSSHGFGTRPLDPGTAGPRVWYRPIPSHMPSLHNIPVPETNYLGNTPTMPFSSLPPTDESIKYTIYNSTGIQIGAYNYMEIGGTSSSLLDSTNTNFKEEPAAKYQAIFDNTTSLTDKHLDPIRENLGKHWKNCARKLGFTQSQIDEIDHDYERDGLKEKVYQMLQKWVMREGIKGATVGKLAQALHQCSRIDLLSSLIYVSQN

[13] = system: Epidermal growth factor receptor (Homo sapiens), P00533 [T790M]; test: Inhibition of recombinant human EGFR T790M mutant (696 to end residues) assessed as residual activity at 0.5 uM using poly(Glu, Tyr) 4:1 as substrate at 40 mins in presence of [gamma-33ATP] by scintillation counting based radiometry assay relative to control
[14] = Tmax in female Sprague-Dawley rat at 10 mg/kg, po measured up to 24 hrs by LC-MS analysis; assay type: ADME, organism-based; conditions: in vivo
[15] = molecular target: Serine/threonine-protein kinase A-Raf (Homo sapiens) (UniProt P10398); test: Inhibition of recombinant human A-Raf (273 to end residues) assessed as residual activity at 0.5 uM using myelin as substrate incubated for 40 mins in presence of [gamma-33P]-ATP by scintillation counting method relative to control
Sequence of Serine/threonine-protein kinase A-Raf (Homo sapiens) (P10398 whole entry): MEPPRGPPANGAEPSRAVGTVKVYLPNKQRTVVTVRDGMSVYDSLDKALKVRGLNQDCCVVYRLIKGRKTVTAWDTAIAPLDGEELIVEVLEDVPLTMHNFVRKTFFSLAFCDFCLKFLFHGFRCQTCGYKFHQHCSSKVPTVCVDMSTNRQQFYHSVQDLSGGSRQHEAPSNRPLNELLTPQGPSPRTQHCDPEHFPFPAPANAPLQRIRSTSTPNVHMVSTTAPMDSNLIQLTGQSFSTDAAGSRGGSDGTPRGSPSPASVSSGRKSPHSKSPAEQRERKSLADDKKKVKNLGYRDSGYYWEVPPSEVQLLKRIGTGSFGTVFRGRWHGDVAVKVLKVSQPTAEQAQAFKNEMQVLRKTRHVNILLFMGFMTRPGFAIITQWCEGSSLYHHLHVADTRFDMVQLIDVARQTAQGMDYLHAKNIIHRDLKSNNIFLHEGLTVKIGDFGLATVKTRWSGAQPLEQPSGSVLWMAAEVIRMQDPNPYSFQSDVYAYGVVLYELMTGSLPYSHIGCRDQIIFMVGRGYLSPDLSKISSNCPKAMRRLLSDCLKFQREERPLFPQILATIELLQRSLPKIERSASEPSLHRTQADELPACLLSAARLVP

[16] = molecular target: T1, High affinity nerve growth factor receptor; test: Inhibition of human TrkA (440 to end residues) assessed as residual activity at 0.5 uM using KKKSPGEYVNIEFG as substrate measured after 40 mins in presence of [gamma33P]ATP by scintillation counting method relative to control
Target sequence in this assay (P04629 33-796 limits assumed): as the sequence (P04629 33-796 G595R limits assumed) above, with R563G counted along it

[17] = system: RAF proto-oncogene serine/threonine-protein kinase (Homo sapiens), P04049 [Y340D,Y341D]; test: Inhibition of recombinant human C-Raf Y340D/Y341D double mutant (306 to end residues) assessed as residual activity at 0.5 uM poly(Glu, Tyr) 4:1 as substrate incubated 40 mins in presence of [gamma-33ATP] by scintillation counting based radiometry assay relative to control
[18] = system: Platelet-derived growth factor receptor alpha (Homo sapiens), P16234 [D842V]; test: Inhibition of human PDGFRalpha D842V mutant (550 to end residues) assessed as residual activity at 0.5 uM using poly(Glu, Tyr) 4:1 as substrate measured after 40 mins in presence of [gamma33P]ATP by scintillation counting based radiometry assay relative to control
Sequence of Platelet-derived growth factor receptor alpha (Homo sapiens), P16234 [D842V] (P16234 whole entry D842V): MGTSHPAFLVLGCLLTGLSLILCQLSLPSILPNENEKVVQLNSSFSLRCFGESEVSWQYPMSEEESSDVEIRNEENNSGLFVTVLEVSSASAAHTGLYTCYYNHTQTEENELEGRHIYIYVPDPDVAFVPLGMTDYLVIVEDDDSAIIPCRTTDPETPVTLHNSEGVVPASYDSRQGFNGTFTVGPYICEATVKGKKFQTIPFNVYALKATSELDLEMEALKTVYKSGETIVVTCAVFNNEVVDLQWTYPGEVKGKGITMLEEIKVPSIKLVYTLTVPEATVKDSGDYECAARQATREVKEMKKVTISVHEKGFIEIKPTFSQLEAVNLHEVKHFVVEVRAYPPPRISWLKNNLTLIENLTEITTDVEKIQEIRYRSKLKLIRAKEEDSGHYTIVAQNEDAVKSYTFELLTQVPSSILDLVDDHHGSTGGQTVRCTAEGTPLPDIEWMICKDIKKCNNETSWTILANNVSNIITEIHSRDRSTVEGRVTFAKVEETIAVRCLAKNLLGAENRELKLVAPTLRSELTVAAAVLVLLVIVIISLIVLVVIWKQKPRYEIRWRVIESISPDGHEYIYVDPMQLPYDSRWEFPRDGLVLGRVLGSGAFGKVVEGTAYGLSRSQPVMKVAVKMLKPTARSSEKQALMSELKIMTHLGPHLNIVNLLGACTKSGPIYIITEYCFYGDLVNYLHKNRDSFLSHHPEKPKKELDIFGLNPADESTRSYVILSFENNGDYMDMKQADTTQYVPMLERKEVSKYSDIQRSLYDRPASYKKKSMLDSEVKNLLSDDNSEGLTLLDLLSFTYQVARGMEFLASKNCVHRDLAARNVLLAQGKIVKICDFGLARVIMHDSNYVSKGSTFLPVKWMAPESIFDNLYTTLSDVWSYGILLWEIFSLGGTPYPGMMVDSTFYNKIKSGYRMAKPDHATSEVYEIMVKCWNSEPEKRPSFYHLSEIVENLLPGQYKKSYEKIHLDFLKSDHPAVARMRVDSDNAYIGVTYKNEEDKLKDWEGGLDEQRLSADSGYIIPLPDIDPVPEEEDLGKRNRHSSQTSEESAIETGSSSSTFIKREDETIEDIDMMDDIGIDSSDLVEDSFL

[19] = Toxicity in mouse xenografted with mouse BaF3 cells transfected with LMNA-NTRK1-G595R mutant assessed as unkempt appearance at 100 mg/kg, po administered once daily for 21 days and measured twice weekly; conditions: in vivo, 504 h
cells = conditions: Homo sapiens, MO-91
Description: Antiproliferative activity against TrK fused human MO-91 cells

[20] = Toxicity in mouse xenografted with mouse BaF3 cells transfected with ETV6-NTRK3 assessed as weight loss at 100 mg/kg, po administered once daily for 21 days and measured twice weekly; conditions: in vivo, 504 h
[21] = Toxicity in mouse xenografted with mouse BaF3 cells transfected with LMNA-NTRK1-G595R mutant assessed as weight loss at 100 mg/kg, po administered once daily for 21 days and measured twice weekly; conditions: in vivo, 504 h
[22] = Toxicity in mouse xenografted with mouse BaF3 cells transfected with ETV6-NTRK3-G623R mutant assessed as weight loss at 100 mg/kg, po administered once daily for 21 days and measured twice weekly; conditions: in vivo, 504 h
BaF3 [23] = test: Antitumor activity against mouse BaF3 cells transfected with ETV6-NTRK3 cells xenografted in mouse assessed as tumor growth inhibition at 100 mg/kg, po administered once daily for 21 days and measured twice weekly; conditions: time 21.0 day
[24] = Toxicity in mouse xenografted with mouse BaF3 cells transfected with ETV6-NTRK3 assessed as unkempt appearance at 100 mg/kg, po administered once daily for 21 days and measured twice weekly; conditions: in vivo, 504 h
BaF3 [25] = test: Antitumor activity against mouse BaF3 cells transfected with LMNA-NTRK1-G595R mutant xenografted in mouse assessed as tumor growth inhibition at 100 mg/kg, po administered once daily for 21 days and measured twice weekly; conditions: time 21.0 day

solubility kinetic [1]: 193 µM (≈ 79.2 µg/mL)
IC50 [3]: 2.4 nM
Activity [4]: 86%
efflux ratio at 2 h (in vitro): 2.8
Activity [5]: 109%
Vd [7]: 1.46 L/kg
Activity [8]: 92%
IC50 [9]: 3.5 nM
half-life [10]: 52.3 min
Activity [12]: 102%
Activity [13]: 105%
Tmax [14]: 40 min
Activity [15]: 103%
Activity [16]: 2%
Activity [17]: 103%
Activity [18]: 102%
Structure (SMILES): O=C1NC2(CC2)COc2ncc(F)cc2[C@H]2COCCN2c2ccn3ncc1c3n2
Activity [2]: Toxic
Activity (BaF3 [6]): Active
Activity (BaF3 [11]): Active

Structure (SMILES): C[C@@H]1CCc2ncc(F)cc2[C@H]2CCCN2c2ccn3ncc(c3n2)C(=O)N1 [SELITRECTINIB]
Activity [19]: Toxic
IC50 (cells): ≤ 5 nM
Activity [20]: Toxic
Activity [21]: Toxic
Activity [22]: Toxic
Activity (BaF3 [23]): Active
Activity [24]: Toxic
Activity (BaF3 [25]): Active
